Results on 1 compound are retold here after patent US20230000835A1, “LYSINE-SPECIFIC HISTONE DEMETHYLASE INHIBITORS FOR THE TREATMENT OF MYELOPROLIFERATIVE NEOPLASMS” (Imago Biosciences, Inc., priority 2019, published 2023).

One data set deals with bone marrow fibrosis. Description: Phase 1/2a clinical study: bone marrow fibrosis grade. The format is in vivo, human. The following applies: Day 0 to Day 84 or EoT; 13 patients with biopsies. The text has this: (§1) A multi-center, open-label study evaluating the safety, tolerability, steady-state pharmacokinetics and pharmacodynamics of Compound 1 administered orally once daily in patients with high-risk MF, including primary myelofibrosis (PMF), post-polycythemia vera myelofibrosis (PPV-MF), and post-essential thrombocythemia myelofibrosis (PET-MF) (collectively referred to as ‘MF’) was initiated as a Phase 1/2A study, and was expanded to a Phase 2b study.
All but one patient had received one or more prior treatments including ruxolitinib. 48% had PMF, 33% PET-MF, 19% PPV-MF. The median patient age was 65 years (48-89) with 58% males. 48% were classified as high risk (IPSS), the remainder, intermediate risk-2. […] A substantial fraction of the patients had ≥3 mutations. Patients were treated daily for 12 weeks, in accordance with above starting dose and titration rules, followed by a washout period of up to 28 days. Starting platelet counts ranged from about 141 to about 1309 k/μL. Bone marrow biopsies and imaging studies of the abdomen were conducted prior to treatment and during the washout period after 12 weeks of dosing. Grading of myelofibrosis was performed centrally using the 2016 revised World Health Organization classification of myeloid neoplasia (Arber et al., 2016); image reading was also performed centrally. […]

In data set [1] the test system is patients with myelofibrosis. Nature of the data set: Phase 2b clinical study in myelofibrosis: spleen volume at week 12. The format is in vivo, human. As to the method: A multi-center, open label, dose-range finding study to assess the safety, optimally effective dosing rules, steady-state pharmacokinetics and pharmacodynamics of Compound 1 orally once daily in patients with myelofibrosis was conducted in a Phase 1/2a study. • Primary objectives were to evaluate, in MF patients the effect of Compound 1 on: Safety and tolerability • Pharmacokinetics (Phase 1/2a only) • Reduction in spleen volume
This study initiated as a Phase 1/2a study assessing the safety of the starting dose, an 85 day duration of treatment, and the pharmacokinetic and pharmacodynamic effects of Compound 1, with transition to a Phase 2b study incorporating changes supported by the earlier pharmacokinetic and pharmacodynamic studies and safety assessments. This study consisted of two treatment periods: the Initial Treatment Period (ITP), followed by the Additional Treatment Period (ATP). Patients commenced enrolment in the Phase 2b portion of the study, in which the ITP has been extended such that patients were treated daily for 169 days. The ATP, also extended, offered treatment to qualifying patients for an additional 169 days.
Initial Treatment Period. During the ITP, patients initially returned for study assessments twice weekly for the first week (ITP Days 0, 3 and 7); post-dosing of 3 patients at the new Ds, the DSMC convened to assess the necessity of the Day 3 visit. Patients returned weekly for the next 7 weeks (ITP Days 14, 21, 28, 35, 42, 49 and 56), at least bi-weekly for 8 weeks (ITP Days 70, 84, 98 and 112) and then monthly for 8 weeks (ITP Days 140 and 168). It was anticipated that by Week 8 (Day 56) patients will have achieved a stable dose, with weekly titrations no longer necessary. For the exceptional patient whose dose had not stabilized, weekly visits continued at the PI's discretion (note: bi-weekly visits may also continue post Day 112). On Days 84 and 168, patients underwent abdominal magnetic resonance imaging (MRI), or computerized tomography (CT) if the patient was not a candidate for MRI. On Day 168, bone marrow sampling was also required. […]

Data set [2] relates to inflammatory cytokines and circulating growth factors. Nature of the data set: Phase 1/2a clinical study: inflammatory cytokines and circulating growth factors. It counts as in vivo, human. As to the method:
as §1
This study was conducted at multiple sites. Up to 50 patients, eighteen years of age or older, with high-risk myelofibrosis were treated. The primary objectives included safety and tolerability, pharmacokinetics (PK; Phase 1/2A only) and spleen volume reduction (SVR). […] Key inclusion criteria included: high- or intermediate-2 risk myelofibrosis; per the Investigator's judgment have failed (refractory or resistant to, inadequately controlled by or intolerant of), or are not a candidate for, available approved therapy including ruxolitinib; platelet count ≥100K/μL; and, circulating blasts ≤10%.
One strategy to reduce the excess products of megakaryocytes is to target megakaryocyte maturation and function. The effectiveness of a treatment targeting the megakaryocyte may be quantified by measuring the products of megakaryocytes, e.g., platelets in circulation or inflammatory cytokines and growth factors in plasma or serum.

Data set [3] in a line: Non-clinical acute toxicity studies. The following applies: even at extremely high doses (human equivalent dose ~20-40 mg/kg). It counts as in vivo.
[4] abbreviates: Phase 2b patients at Week 12, n=14.

The structures appear in SMILES notation. Where a name gives a salt, the structure may show the parent alone.

`CN1CCN(C(=O)[C@H](CCCN[C@@H]2C[C@H]2c2ccc(F)cc2)NC(=O)c2ccc(-n3ccnn3)cc2)CC1` [Compound 1, N-[(2S)-5-{[(1R, 2S)-2-(4-fluorophenyl)cyclopropyl]amino}-1-(4-methylpiperazin-1-yl)-1-oxopentan-2-yl]-4-(1H-1,2,3-triazol-1-yl)benzamide, bis-tosylate salt]: in the data set on bone marrow fibrosis, the “patients with a stable fibrosis score” value was 62% and the “patients with improvement of bone marrow fibrosis of ≥1 grade” value was 15%. In addition, in data set [1] (setting [4]), the “patients with a reduction of spleen volume of ≥20%” value is 29% and the “patients with a reduction of spleen volume of ≥35%” value came out at 14%. In data set [1] (Phase 2b patients, n=14), the “median change of spleen volume to Wk 12” value is −15%. The “levels of CCL3, IL-6, IL-10, IL-33, IL-28A, IFNβ, IFNα, IFNγ” value in data set [2] (in the course of treatment) is “not elevated in any patient”. In addition, the “change in inflammatory cytokine S100A9” value in data set [2] (week 12, FIG. 4) was “generally decreased”. For the same compound, in data set [2] (week 12, FIG. 5), the “change in inflammatory cytokine RANTES” value is “generally decreased”. Moreover, the “change in inflammatory cytokine IL-8” value in data set [2] (week 12, FIG. 6) was “generally decreased”. For the same compound, the “change in circulating growth factor VEGF” value in data set [2] (week 12, FIG. 7) was “generally decreased”. In data set [2] (week 12, FIG. 8), the “change in circulating growth factor PDGF-BB” value is “generally decreased”. Besides, in data set [3], the “acute toxicity in non-clinical studies” value is “no evidence in non-clinical studies of acute toxicity”.
